The subject of this experiment is P388 leukemia ip, CD2F1 mice, survival T/C. The experiment in a line: NCI In Vivo Anticancer Drug Screen. Data for tumor model P388 Leukemia (intraperitoneal) in CD2F1 (CDF1) mice. The conditions noted are these: endpoint: median survival time, higher = longer survival. In short, it runs like this: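 Mice carrying the transplanted tumor received test compound or vehicle. Survival was recorded in each group, and the value is the treated-group measurement divided by that of the vehicle-treated control group.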

Setting [1] is: dose: 12.5 mg/kg/injection, schedule: Q01DX005 (ip), vehicle: Klucel (hydroxypropylcellulose) (HPC).
Setting [2] is: dose: 25.0 mg/kg/injection, schedule: Q01DX005 (ip), vehicle: Klucel (hydroxypropylcellulose) (HPC).
[3] abbreviates: dose: 50.0 mg/kg/injection, schedule: Q01DX005 (ip), vehicle: Klucel (hydroxypropylcellulose) (HPC).
[4] abbreviates: dose: 50.0 mg/kg/injection, schedule: Q01DX009 (ip), vehicle: Klucel (hydroxypropylcellulose) (HPC).
Setting [5] is: dose: 100.0 mg/kg/injection, schedule: Q01DX009 (ip), vehicle: Klucel (hydroxypropylcellulose) (HPC).
The mark [6] stands for this setting: dose: 50.0 mg/kg/injection, schedule: Q01DX005 (ip), vehicle: saline with Tween-80.
Where [7] appears, read: dose: 200.0 mg/kg/injection, schedule: Q01DX005 (ip), vehicle: saline with Tween-80.
The mark [8] stands for this setting: dose: 100.0 mg/kg/injection, schedule: Q04DX002 (ip), vehicle: saline with Tween-80.
Setting [9] is: dose: 200.0 mg/kg/injection, schedule: Q04DX002 (ip), vehicle: saline with Tween-80.
Where [10] appears, read: dose: 400.0 mg/kg/injection, schedule: Q04DX002 (ip), vehicle: saline with Tween-80.
Setting [11] is: dose: 100.0 mg/kg/injection, schedule: Q01DX005 (ip), vehicle: Klucel (hydroxypropylcellulose) (HPC).
[12] abbreviates: dose: 200.0 mg/kg/injection, schedule: Q01DX005 (ip), vehicle: Klucel (hydroxypropylcellulose) (HPC).
Where [13] appears, read: dose: 100.0 mg/kg/injection, schedule: Q01DX005 (ip), vehicle: saline with Tween-80.

“And” between values parts separate entries of the source, which are not always exact repeats. Identical values can stand only once. Toxic doses and inconclusive results are not listed.

With `CC(CNC(Cc1ccccc1)c1ccccc1)NC(Cc1ccccc1)c1ccccc1` (stereo unspecified), the T/C was 110 % of control under setting [1]; 102 % of control under setting [2]; 105 % of control and 110 % of control under setting [3].

With `C=C1C(OC(=O)c2ccccc2)C2[C@@H](OC(=O)CC)[C@@H](C)C[C@]2(O)C(=O)[C@@H](C)/C=C/C(C)(C)C(=O)C(O)[C@H]1OC(=O)C(C)C` (stereo partly specified), the T/C runs as follows: (dose: 60.0 mg/kg/injection, schedule: Q01DX005 (ip), vehicle: saline with Tween-80) 102 % of control; (dose: 120.0 mg/kg/injection, schedule: Q01DX005 (ip), vehicle: saline with Tween-80) 91 % of control.

Turning to `C=C1C(=O)OC(C)(C)C1c1ccccc1` (stereo unspecified), the T/C is, setting by setting: under setting [4], 96 % of control; under setting [5], 90 % of control.

Consider `CCOC(=O)Nc1ccc(C2OCCS2)cc1` (stereo unspecified), for which the T/C is 86 % of control under setting [6] and 90 % of control under setting [7].

`Nc1ccc(C(OC(=O)c2cc3ccccc3c(Cc3c(O)c(C(=O)OC(c4ccc(N)cc4)(c4ccc(N)cc4)c4ccc(N)cc4)cc4ccccc34)c2O)(c2ccc(N)cc2)c2ccc(N)cc2)cc1`: the T/C (dose: 6.25 mg/kg/injection, schedule: Q01DX009 (ip), vehicle: saline with Tween-80) was 117 % of control.

Take `COc1ccc2nonc2c1`: the T/C was 103 % of control (dose: 100.0 mg/kg/injection, schedule: Q01DX001 (ip), vehicle: saline); 103 % of control (dose: 200.0 mg/kg/injection, schedule: Q01DX001 (ip), vehicle: saline); 105 % of control (dose: 400.0 mg/kg/injection, schedule: Q01DX001 (ip), vehicle: saline).

In the case of `COc1ccc(CC2C(=O)NC(C)C(=O)N(C)C3C(=O)N(C)C(Cc4ccc(OC(C)=O)c(c4)Oc4ccc(cc4)C3OC(C)=O)C(=O)NC(C)C(=O)NC(C)C(=O)N2C)cc1` (stereo unspecified), the T/C (dose: 2.0 mg/kg/injection, schedule: Q01DX009 (ip), vehicle: none) is 154 % of control.

In the case of `Cc1c(N)nc(C(CC(N)=O)NCC(N)C(N)=O)nc1C(=O)NC(C(=O)NC(C)C(O)C(C)C(=O)NC(C(=O)NCCc1nc(-c2nc(C(=O)NCCCNCCCc3ccccn3)cs2)cs1)C(C)O)C(OC1OC(CO)C(O)C(O)C1OC1OC(CO)C(O)C(OC(N)=O)C1O)c1cnc[nH]1` (stereo unspecified), the T/C by setting is: (dose: 0.25 mg/kg/injection, schedule: Q01DX009 (ip), vehicle: water) 110 % of control; (dose: 0.5 mg/kg/injection, schedule: Q01DX009 (ip), vehicle: water) 104 % of control; (dose: 1.0 mg/kg/injection, schedule: Q01DX009 (ip), vehicle: water) 111 % of control; (dose: 2.0 mg/kg/injection, schedule: Q01DX009 (ip), vehicle: water) 101 % of control; (dose: 4.0 mg/kg/injection, schedule: Q01DX009 (ip), vehicle: saline) 104 % of control; (dose: 8.0 mg/kg/injection, schedule: Q01DX009 (ip), vehicle: saline) 104 % of control. The T/C is, setting by setting: (dose: 16.0 mg/kg/injection, schedule: Q01DX009 (ip), vehicle: saline) 112 % of control; (dose: 32.0 mg/kg/injection, schedule: Q01DX009 (ip), vehicle: saline) 105 % of control.

On to `O=C(O)c1cn2ccccc2c1[N+](=O)[O-]`, for which the T/C is, setting by setting: under setting [8], 94 % of control; under setting [9], 92 % of control; under setting [10], 96 % of control.

`COc1cc2c(cc1OC)C(c1ccc([N+](=O)[O-])c(C)c1)=NCC2`: the T/C under setting [3] is 100 % of control, the T/C under setting [11] is 100 % of control and the T/C under setting [12] is 96 % of control.

For `Cc1ccc(NC(=O)CCC(=O)C(C)C(=O)c2ccccc2)c(C)c1` (stereo unspecified), the T/C is, setting by setting: under setting [6], 99 % of control; under setting [13], 97 % of control; under setting [7], 97 % of control.

Regarding `O=C1C2=C(Nc3cc(Cl)ccc3N2)OC1c1ccc(Cl)c(Cl)c1` (stereo unspecified), the T/C by setting is: under setting [3], 92 % of control; under setting [12], 88 % of control.

Turning to `CC([NH-])C[NH-].O=C(O)CC(=O)O.[Pt+2]`, the T/C is 153 % of control and 158 % of control (dose: 25.0 mg/kg/injection, schedule: Q04DX002 (ip), vehicle: saline with Tween-80); 179 % of control and 183 % of control (dose: 50.0 mg/kg/injection, schedule: Q04DX002 (ip), vehicle: saline with Tween-80).

On to `COc1cc2c(cc1OC)[C@H](c1cc(Br)c(O)c(OC)c1)[C@H]1C(=O)OCC1C2` (stereo partly specified), for which the T/C (dose: 12.5 mg/kg/injection, schedule: Q01DX005 (ip), vehicle: saline with Tween-80) is 87 % of control; the T/C (dose: 25.0 mg/kg/injection, schedule: Q01DX005 (ip), vehicle: saline with Tween-80) is 92 % of control; the T/C under setting [6] was 92 % of control; the T/C under setting [13] is 88 % of control; the T/C under setting [7] is 89 % of control.

Take `COC(=O)CC(C(=O)OC)C(C(=O)OC)C(C(=O)OC)C(CC(=O)OC)C(=O)OC` (stereo unspecified): the T/C is 98 % of control under setting [8], 104 % of control under setting [9] and 102 % of control under setting [10].

In the case of `CCNC(=O)OCC1=C(COC(=O)NCC)C2OC1C(C(=O)OC)=C2C(=O)OC`, the T/C by setting is: (dose: 3.13 mg/kg/injection, schedule: Q01DX009 (ip), vehicle: distilled water + Tween-80) 100 % of control; (dose: 6.25 mg/kg/injection, schedule: Q01DX009 (ip), vehicle: distilled water + Tween-80) 98 % of control; (dose: 12.5 mg/kg/injection, schedule: Q01DX009 (ip), vehicle: distilled water + Tween-80) 100 % of control and 87 % of control; (dose: 25.0 mg/kg/injection, schedule: Q01DX009 (ip), vehicle: distilled water + Tween-80) 109 % of control.

With `COc1cccc2c1C(=O)c1c(O)c3c(c(O)c1C2=O)CC(O)(C(C)=O)CC3OC1CC(N)C(C(C)O)O1` (stereo unspecified), the T/C (dose: 2.25 mg/kg/injection, schedule: Q04DX003 (ip), vehicle: distilled water + Tween-80) was 100 % of control; the T/C (dose: 4.5 mg/kg/injection, schedule: Q04DX003 (ip), vehicle: distilled water + Tween-80) is 99 % of control; the T/C (dose: 9.0 mg/kg/injection, schedule: Q04DX003 (ip), vehicle: distilled water + Tween-80) was 110 % of control; the T/C (dose: 18.0 mg/kg/injection, schedule: Q04DX003 (ip), vehicle: distilled water + Tween-80) was 101 % of control; the T/C (dose: 36.0 mg/kg/injection, schedule: Q04DX003 (ip), vehicle: distilled water + Tween-80) was 110 % of control.

Take `COc1ccc2c(CCN(/C=C/C(C)=O)C(C)=O)cn(C(C)=O)c2c1`: the T/C under setting [1] was 109 % of control, the T/C under setting [2] is 104 % of control and the T/C under setting [3] is 100 % of control.

In the case of `C=CC1CC[N-]CC1.C=CC1CC[N-]CC1.C=CC1CC[N-]CC1.[Cl][Cr]([Cl])[Cl]`, the T/C was 100 % of control (dose: 12.5 mg/kg/injection, schedule: Q04DX003 (ip), vehicle: saline with Tween-80); 100 % of control (dose: 25.0 mg/kg/injection, schedule: Q04DX003 (ip), vehicle: saline with Tween-80); 100 % of control (dose: 50.0 mg/kg/injection, schedule: Q04DX003 (ip), vehicle: saline with Tween-80).

For `O=c1c2ccccc2c(=O)n2n1C1CCC2C1`, the T/C by setting is: under setting [3], 96 % of control; under setting [11], 110 % of control; under setting [12], 100 % of control.

On to `CC1=NC2=NC(CCCC(=O)OCc3ccc(Cl)c(Cl)c3)=NC3=CC=CC(=N1)N32`, for which the T/C is, setting by setting: (dose: 25.0 mg/kg/injection, schedule: Q01DX009 (ip), vehicle: saline with Tween-80) 101 % of control; (dose: 50.0 mg/kg/injection, schedule: Q01DX009 (ip), vehicle: saline with Tween-80) 111 % of control; (dose: 100.0 mg/kg/injection, schedule: Q01DX009 (ip), vehicle: saline with Tween-80) 95 % of control.

For `CC1(C)OC(CC(=O)O)C23COC(C(=O)C4(C)C2CCC2(C)C(C5CCOC5)OC(=O)C5OC524)C13` (stereo unspecified), the T/C (dose: 0.5 mg/kg/injection, schedule: Q01DX009 (ip), vehicle: saline + alcohol) is 103 % of control; the T/C (dose: 1.0 mg/kg/injection, schedule: Q01DX009 (ip), vehicle: saline + alcohol) was 101 % of control; the T/C (dose: 2.0 mg/kg/injection, schedule: Q01DX009 (ip), vehicle: saline + alcohol) is 100 % of control; the T/C (dose: 4.0 mg/kg/injection, schedule: Q01DX009 (ip), vehicle: saline + alcohol) was 103 % of control.

Turning to `COC1=CC(=Nc2ccc(N(CCCl)CCCl)cc2)C=CC1=O`, the T/C is, setting by setting: (dose: 25.0 mg/kg/injection, schedule: Q01DX009 (ip), vehicle: Klucel (hydroxypropylcellulose) (HPC)) 159 % of control; under setting [4], 151 % of control and 154 % of control; under setting [5], 159 % of control and 174 % of control.

These data come from PubChem BioAssay AID330 (DTP/NCI, 2004).
